The test system of one experiment is INS1. The experiment in a line: beta cell apoptosis inhibitors, cytokine rescue, dose response, luminescence, retest (AID 449756).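 Further: cell death triggered by IL-1 beta plus TNF-alpha plus IFN-gamma mixture; protective hits raise ATP signal compared with cytokine alone wells.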 Format: functional, cell-based. Particulars: Rattus norvegicus.
Experiment [1] in a line: Luminescence Cell-Based Dose Response HTS to Identify Inhibitors of 5'UTR Stem-Loop Driven Prion Protein mRNA Translation in H4 Neuroglioblastoma Cells. [Related pubchem assays: 1827 (Project Summary), 1813 (Primary HTS)]. It is filed as functional.
Experiment [2] has as its target T1, Heat shock factor protein 1 (Mus musculus, UniProt P38532).
T1 sequence (P38532 whole entry): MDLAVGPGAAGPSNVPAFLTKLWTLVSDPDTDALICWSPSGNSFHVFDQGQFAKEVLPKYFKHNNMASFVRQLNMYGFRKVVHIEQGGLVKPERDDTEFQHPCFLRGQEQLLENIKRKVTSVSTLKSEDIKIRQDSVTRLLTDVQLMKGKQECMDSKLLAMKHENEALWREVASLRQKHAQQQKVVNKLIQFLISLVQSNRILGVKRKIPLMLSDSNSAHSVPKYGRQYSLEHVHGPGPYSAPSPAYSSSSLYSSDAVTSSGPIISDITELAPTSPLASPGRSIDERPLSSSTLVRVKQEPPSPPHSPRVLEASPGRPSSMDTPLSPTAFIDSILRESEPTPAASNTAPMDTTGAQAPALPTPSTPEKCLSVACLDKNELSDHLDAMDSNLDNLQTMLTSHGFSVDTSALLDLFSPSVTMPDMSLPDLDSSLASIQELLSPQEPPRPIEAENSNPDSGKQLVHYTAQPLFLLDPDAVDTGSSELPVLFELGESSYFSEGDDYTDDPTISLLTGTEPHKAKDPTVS
The experiment in a line: HSF1 potentiators in luciferase reporter cells, confirmation, cell-based, NIH3T3, luminescence, dose retest (AID 435004).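 Further: stress induced by proteasome inhibitor MG132 added 30 min after compound; luciferase reporter driven by HSF1 response element in NIH3T3 cells; actives raise luminescence as potentiators of the MG132 stress response.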 It is filed as functional. For orientation: A reporter such as luciferase makes a cellular process visible.

Experiment [3] can be described thus: inhibitors of SNCA 5'UTR-driven reporter translation, confirmation, H4 neuroglioma cells, luminescence (AID 1988). Format: functional, cell-based.
Experiment [4] in a line: inhibitors of firefly luciferase expression or activity, dose response, H4 neuroglioma cells, luminescence (AID 1990). It is filed as functional, cell-based.
The nature of experiment [5]: C. albicans growth with fluconazole, confirmation, fluorescence, retest (AID 2467). Format: functional, cell-based.
Experiment [6] deals with Streptococcus sp. 'group A'. The experiment in a line: growth inhibition of control SK(-) GAS strain, dose response, counter-screen for streptokinase expression inhibitor project, luminescence, kanamycin, BacTiterGlo, confirmation (AID 1900). Format: functional, organism-based.
A short description of experiment [7]: NIH-3T3 fibroblast cytotoxicity, dose response, cytotoxicity control, cell-based, fluorescence, Alamar Blue, secondary assay (AID 2327).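 Further: NIH-3T3 mouse fibroblasts cultured with fluconazole at 8 µg/mL.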 Format: functional. In general terms: Resazurin is reduced to fluorescent resorufin, in cell work by metabolically active cells.
In another experiment the test system is Streptococcus. Nature of the experiment: Group A Streptococcus viability loss, dose response, counter-screen for streptokinase expression inhibitor project, luminescence, BacTiterGlo (AID 1915).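 Further: potency for reduction of bacterial viability or growth.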 Format: functional, organism-based.
Experiment [8] deals with T2, Corticotropin-releasing factor receptor 2/Corticotropin-releasing factor-binding protein (Homo sapiens, UniProt P24387+Q13324).
T2 sequence (Q13324 whole entry): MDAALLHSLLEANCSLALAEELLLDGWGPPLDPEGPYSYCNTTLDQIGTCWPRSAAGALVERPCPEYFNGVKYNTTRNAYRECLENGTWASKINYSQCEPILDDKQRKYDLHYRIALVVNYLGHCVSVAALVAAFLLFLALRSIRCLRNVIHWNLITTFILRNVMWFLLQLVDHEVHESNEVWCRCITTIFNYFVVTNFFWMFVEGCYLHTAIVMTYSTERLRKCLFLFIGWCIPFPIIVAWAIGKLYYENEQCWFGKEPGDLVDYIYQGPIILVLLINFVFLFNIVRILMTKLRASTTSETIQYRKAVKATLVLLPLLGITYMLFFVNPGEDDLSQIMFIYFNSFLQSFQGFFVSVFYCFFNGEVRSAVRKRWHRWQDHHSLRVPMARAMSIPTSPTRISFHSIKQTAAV
T2 sequence (P24387 whole entry): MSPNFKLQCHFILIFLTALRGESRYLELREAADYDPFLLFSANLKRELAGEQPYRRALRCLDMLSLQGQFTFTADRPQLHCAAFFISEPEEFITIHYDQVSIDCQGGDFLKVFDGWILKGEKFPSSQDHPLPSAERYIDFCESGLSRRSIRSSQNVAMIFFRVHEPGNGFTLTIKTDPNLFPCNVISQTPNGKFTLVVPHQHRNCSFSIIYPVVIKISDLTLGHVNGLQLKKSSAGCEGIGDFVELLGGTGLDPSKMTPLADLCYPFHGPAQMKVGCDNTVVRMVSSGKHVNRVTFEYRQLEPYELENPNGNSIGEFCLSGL
Nature of the experiment: Dose Response confirmation of uHTS hits for small molecule antagonists of the CRF-binding protein and CRF-R2 receptor complex. To be noted: read-out: IC50_Mean. It is filed as functional.

The next experiment has as its target T3, Streptokinase A (Streptococcus pyogenes serotype M1, UniProt P10520).
T3 sequence (P10520 whole entry): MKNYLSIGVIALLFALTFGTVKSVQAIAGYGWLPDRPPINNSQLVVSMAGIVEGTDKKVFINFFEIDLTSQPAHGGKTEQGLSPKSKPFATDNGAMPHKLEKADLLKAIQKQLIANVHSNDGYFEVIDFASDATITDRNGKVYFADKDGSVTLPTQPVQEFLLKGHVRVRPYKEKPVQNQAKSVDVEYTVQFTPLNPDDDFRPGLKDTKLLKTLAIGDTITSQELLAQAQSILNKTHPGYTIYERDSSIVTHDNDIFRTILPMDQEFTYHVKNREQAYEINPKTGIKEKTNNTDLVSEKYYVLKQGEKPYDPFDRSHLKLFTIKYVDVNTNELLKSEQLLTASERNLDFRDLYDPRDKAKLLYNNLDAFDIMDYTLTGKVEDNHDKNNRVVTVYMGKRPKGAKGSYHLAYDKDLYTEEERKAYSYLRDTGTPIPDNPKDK
The experiment in a line: S. pyogenes streptokinase expression inhibitors, potency, dose response, plasminogen activation absorbance, OD405 (AID 1914).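 Further: secreted streptokinase activity via plasminogen activation per viability signal from cell pellet.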 It is filed as functional, Streptococcus pyogenes M1 GAS.

Experiment [9] has as its target T2, Corticotropin-releasing factor receptor 2/Corticotropin-releasing factor-binding protein. The experiment in a line: activators of CRF receptor 2 with binding protein – uHTS hits, confirmation (AID 602473). It is filed as functional. Particulars: read-out: EC50_Mean.
The test system of another experiment is H4. Nature of the experiment: Luminescence Cell-Based Dose Response HTS to Identify Activators of 5'UTR Stem-Loop Driven Prion Protein mRNA Translation in H4 Neuroglioblastoma Cells. [Related pubchem assays: 1829 (Project Summary), 1814 (Primary HTS)]. Format: functional. Particulars: Homo sapiens.
A short description of experiment [10]: Luminescence Cell-Based Dose Confirmation HTS to Identify Activators of 5'UTR Stem-Loop Driven Alpha-Synuclein mRNA Translation in H4 Neuroglioblastoma Cells. [Related pubchem assays: 1829 (Project Summary), 1814 (Primary HTS)]. Format: functional.
Experiment [11] in a line: Luminescence Cell-Based Dose Response HTS to Identify Activators of Luciferase Translation or Activity in H4 […] Cells. [Related pubchem assays: 1829 (Project Summary), 1814 (Primary HTS)]. Format: functional.
The target in a further experiment is Paired box protein Pax-8 (Homo sapiens, UniProt Q06710). The experiment in a line: inhibitors of PAX8-driven TPO luciferase reporter, dose response, RMG-I cells, cherry-pick (AID 687027).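 Further: luciferase reporter driven by Pax8 target thyroperoxidase promoter measured by SteadyGlo luminescence.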 Format: functional, cell-based.
Chain of Paired box protein Pax-8 (Q06710 whole entry): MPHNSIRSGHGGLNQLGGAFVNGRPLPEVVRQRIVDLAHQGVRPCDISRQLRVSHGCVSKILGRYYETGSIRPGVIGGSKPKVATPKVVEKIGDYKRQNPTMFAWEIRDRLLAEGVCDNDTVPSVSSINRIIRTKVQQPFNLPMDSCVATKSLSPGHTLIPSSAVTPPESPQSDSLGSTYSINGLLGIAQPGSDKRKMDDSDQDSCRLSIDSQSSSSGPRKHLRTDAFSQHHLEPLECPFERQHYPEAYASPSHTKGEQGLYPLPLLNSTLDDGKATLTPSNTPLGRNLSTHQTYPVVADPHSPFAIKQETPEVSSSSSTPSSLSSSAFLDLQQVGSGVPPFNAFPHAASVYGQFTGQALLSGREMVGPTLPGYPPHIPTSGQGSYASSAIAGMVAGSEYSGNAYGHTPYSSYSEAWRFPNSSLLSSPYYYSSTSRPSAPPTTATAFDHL
The nature of experiment [12]: inhibitors of intracellular T. cruzi replication, confirmation, NIH3T3 host cells, beta-gal luminescence (AID 2044).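 Further: intracellular parasites grown in NIH/3T3 mouse fibroblasts as host cells; luminescent beta-galactosidase reporter signal from transgenic T. cruzi replicating inside host cells; inhibitors lower the luminescence signal.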 It is filed as functional, cell-based.
A short description of experiment [13]: cytotoxicity toward NIH3T3 fibroblasts, dose response, counter-screen, cell-based, ATP luminescence, mouse fibroblasts (AID 2010).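 Further: cells exposed to compound for about 90 hours before reading.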 It is filed as functional. Background: The purpose of a counterscreen is to sort out artefacts and off-target activity.

Active and inactive are the calls of the source. For most assays here, no stated cut-off is given here; in the data, actives have a measured EC50 and inactives only a lower limit. Some results are limits rather than exact numbers.

In general, AC50 refers to the concentration giving half of the maximal activity seen.

For the compound `Cc1cc(O)c2c(c1)C(=O)C13C(=C2O)C(=O)[C@H]2[C@@H](O)[C@@H]1[C@H]1[C@H](O)[C@@H]3C(=O)C3=C(O)c4c(O)cc(C)cc4C(=O)C312` (some centres undefined), the AC50 in the experiment on INS1 is 7.65 µM (active).

On to `CC(Nc1cc(N2CCNCC2)ccc1[N+](=O)[O-])c1ccccc1` (centres undefined), for which the EC50 was > 120 µM (not active) in experiment [1], > 260 µM (inactive) in experiment [2], 33.7 µM (active) in [3] and > 120 µM (not active) in experiment [4].

Turning to `CN(Cc1ccccc1)C(=O)CCC1CCN(C(=O)CC2=CCCCC2)CC1`, in experiment [2], the EC50 was > 260 µM (inactive).

For the compound `Cc1cccc(C2c3[nH]c4ccccc4c3CCN2Cc2cnn(-c3ccc(F)cc3)c2)n1` (centres undefined), the EC50 in experiment [2] is > 260 µM (inactive).

For the compound `Cc1ccc(O)c(C(=O)c2cnc3c(c2)CN(CCC(C)C)C(=O)N3)c1`, the EC50 in experiment [2] was > 260 µM (inactive).

`O=C(O)c1cnc(-c2ccccc2)nc1Sc1ccc(Cl)cc1Cl`: the EC50 was 0.13 µM (active) in [5]; 15.4 µM (active) in experiment [6]; 57.8 µM (active) in experiment [7]; > 150 µM (not active) in the experiment with Streptococcus; 18.8 µM (active) on Streptokinase A; > 53 µM (inactive) in [9]. Moreover, the IC50 in experiment [8] is 1.85 µM (active).

As for `O=C(NC1CCCCC1)C1CCCN1S(=O)(=O)c1cccc2nsnc12` (centres undefined), in [2], the EC50 is > 260 µM (inactive).

Turning to `CC(C)(C)C1CCC(OC(=O)CN2CCOCC2)CC1` (centres undefined), the EC50 in the experiment with H4 is 19.6 µM (active); in experiment [10], 13.5 µM (active); in experiment [11], 8.04 µM (active).

`CCN1CCN(C(CNC(=O)c2ccc3c(c2)OCO3)c2cccnc2)CC1` (centres undefined): the results for the EC50 (with H4; in experiment [10]; in experiment [11]) were 15.6 µM (active), > 120 µM (not active) and 11.5 µM (active), respectively.

Take `CN1C(=O)C2C=CC1C1C(=O)N(c3ccccc3)C(=O)C21` (centres undefined): the EC50 in the experiment on H4 was 0.209 µM (active); in experiment [10] it was 0.128 µM (active); in experiment [11], 0.45 µM (active).

Turning to `CN(C)c1ccc(N=Nc2ccccc2C(=O)OCC(=O)N(C)C2CCCCC2)cc1`, the EC50 is 51.8 µM (active) in the experiment with H4, 85.5 µM (active) in experiment [10] and 84.2 µM (active) in experiment [11].

As for `COc1c2c(cc3oc(=O)c4c5ccc(O)cc5oc4c13)OC(C)(C)CC2` [ISOGLYCYROL], the EC50 in [10] is 0.274 µM (active); in experiment [11] it was 3.13 µM (active).

`Cn1nnnc1SCC(=O)Nc1nc2ccccc2s1`: the results for the EC50 (in the experiment with H4; in [10]; in experiment [11]) were 33.4 µM (active), 8.16 µM (active) and 8.98 µM (active), respectively.

`O=C(NC1CCCCC1)C(c1cccs1)N(C(=O)Cc1c[nH]c2ccccc12)c1ccc(F)cc1` (centres undefined): the AC50 on Paired box protein Pax-8 was 11.7 µM (active). In addition, the values for the EC50 in experiment [12] and in [13] were 0.871 µM (active) and 9.47 µM (active), respectively.

For the compound `CSc1nsc(SCC(=O)Nc2ccc(C(C)=O)cc2)n1`, the EC50 in the experiment on H4 is 6.18 µM (active); in [10] it was 4.49 µM (active); in experiment [11] it was 23.5 µM (active).

For `COc1ccc(N2C(S)=NC3N2C(S)=NC3(C)c2ccccc2)cc1` (centres undefined), the values for the EC50 (in the experiment on H4; in experiment [10]; in [11]) were 53.5 µM (active), 18.1 µM (active) and 35 µM (active), respectively.

Consider `CC(C)(C)CN1CCC(Oc2cccc(C(=O)NCCCOc3cccnc3)c2)CC1`, for which the concentration at half-maximal activity (AC50) in the experiment with INS1 was 1.25 µM (active).

Turning to `CCN(CC)S(=O)(=O)c1ccc(OC)c(NC(=O)c2cc3c(=O)n4ccccc4nc3s2)c1`, the EC50 in experiment [2] is > 260 µM (inactive).

Turning to `CCCCc1ccc(-c2ccc(Br)cc2)nc1`, in experiment [2], the EC50 was > 260 µM (inactive).

With `CCO[C@@H]1OC(C(=O)NCc2nc3ccccc3[nH]2)=C[C@H](C2CC2)[C@H]1CCCO`, the EC50 (in the experiment with H4; in experiment [10]; in experiment [11]) was > 120 µM (not active) each time.

For `Cc1c(C(=O)N(Cc2ccncc2)CC2CCCO2)oc2c(F)cccc12` (centres undefined), the EC50 in [2] was > 260 µM (inactive).

As to `COC(=O)c1cn(CCOc2ccccc2)c2ccccc12`, the figures for the EC50 (in the experiment on H4; in experiment [10]; in experiment [11]) were 12.9 µM (active), 6.67 µM (active) and 10.2 µM (active), respectively.

For `Cc1ccc2nc(-c3ccc4c(c3)OCCO4)cc(C(=O)O)c2c1`, the EC50 in [2] was > 260 µM (inactive).

In the case of `CN(C)CCCN(C(=O)CCOc1ccccc1)c1nc2c(F)cccc2s1`, the half-maximal activity concentration (AC50) on Paired box protein Pax-8 is 7.17 µM (active). The EC50 was 0.152 µM (active) in [12] and 7.17 µM (active) in experiment [13].

Consider `CCOC(=O)C1CCN(C(=O)CN2C(=O)COc3ccc(C(C)(C)C)cc32)CC1`, for which the EC50 (in the experiment on H4; in experiment [10]; in [11]) was > 120 µM (not active) each time.

(Values after ChEMBL document CHEMBL1201862, “PubChem BioAssay data set” (2004).)
